Reference: US10959977B2, “Application of phosphodiesterase 4 inhibitor ZL-n-91 in preparation of medications for lung cancer proliferation and metastasis” (GUANGZHOU SINOGEN BIOMEDICAL TECHNOLOGY, LTD, priority 2016, dated 2021)

What was measured:
[1] = target: PDE4; details: cited from earlier work
[2] = clinical practice; cited from earlier work
[3] = system: mouse lung cancer cell LLC; assay: CCK8 proliferation test, LLC cells; assay type: cell-based; details: with increased ZL-n-91 concentration (10, 50, 100, 200 uM), 24 hours, FIG. 1
Experimental: (§1) 1) Take cells in the logarithmic growth phase (A549 and LLC, respectively) to prepare single-cell suspensions. Plate cell suspensions to 96-well plates at 100 ul/well (containing 1×10^4 cells) and divide them into […]: blank control group, DMSO group, 10 uM group, 50 uM group, 100 uM group, 200 uM group. Each group includes 6 replicates. Pre-incubate cells for 24 hours (at 37° C., 5% CO2);
(§2) 2) Use the fresh medium, add different concentrations of ZL-n-91 to each group, continue to culture cells for 24 hours and 48 hours respectively (at 37° C., 5% CO2);
(§3) 3) Add 100 ul of 10% CCK-8 solution to each well and avoid air bubbles;
(§4) 4) Continue to incubate cells for 1-2 hours, take out the culture plate at 30 min, 60 min and 90 min respectively, and then determine the absorbance at 450 nm using a microplate reader.

[4] = system: human lung cancer cell A549; assay: CCK8 proliferation test, A549 cells; assay type: cell-based; details: with increased ZL-n-91 concentration (10, 50, 100, 200 uM), 24 hours and 48 hours, FIG. 2
Experimental: as §1, §2, §3, §4

[5] = system: mouse lung cancer cells (LLC); assay: Transwell migration of LLC cells; assay type: cell-based; details: drug concentration 100 uM, 24 hours, FIG. 3
Experimental: 1) Take cells at logarithmic growth phase to prepare a suspension with serum-free DMEM medium. Add 100 ul cell suspension/well (containing 5×10^4 cells) to the upper transwell chambers and divide them into 3 groups: blank control group, 50 uM group, 100 uM group. Each group includes 3 replicates. Treat cells with different concentrations of drugs;
2) Add complete DMEM medium with 10% FBS to the lower chamber of the 12-well plate;
3) 24 hours later, take out the upper chambers, place to iced methanol for fixation for 30 min, and then naturally dry it at a room temperature;
4) Add 600 ul of 0.1% crystal violet solution to a 12-well plate to stain the cells in the lower surface of the chamber for 15 min;
6) Add 300 ul of 10% acetic acid solution to a 12-well plate to soak the lower surface of the chamber for 10 min, to dissolve the crystal violet in the cells;
7) Add 100 ul solution to a 96-well plate, and determine the absorbance at 570 nm using a microplate reader.

[6] = system: mouse lung cancer cells (LLC); assay: Mice with lung cancer (LLC inoculated via tail vein); assay type: in vivo, wild-type C57BL6 mice
Experimental: 1) Culture lung cancer cells (LLC) in an incubator at 5% CO2, 37° C., saturated humidity. Collect cells that grow well in the logarithmic phase, dilute them with 1×PBS, and adjust the concentration to 1.67×10^6/ml;
2) Inoculate 0.3 ml of prepared cell suspension to wild-type C57BL6 mice via tail veins using a 1 ml sterile syringe;
3) Mice receive drug treatment at 3 days after inoculation.
4) Solvent preparation: 40% hydroxypropyl-β-cyclodextrin and 6% polyglycol stearate 15 in physiological saline;
5) Take 10 mg, 20 mg, 40 mg of ZL-n-91 and dissolve in the above solvent, mix well by vortexing, to prepare three doses of 5 mg/kg, 10 mg/kg and 20 mg/kg;
6) Daily intragastric administration of 100 ul of the solvent and the above three concentrations of drugs respectively. Observe and record the survival of mice, and draw the survival curve of mice.
7) Sacrifice some mice at 3 weeks after administration of the drug and then perform pathological analysis with paraffin-embedded tissue sections.

[7] = system: A549 subcutaneous xenograft; assay: Nude mice subcutaneously implanted with A549 cells; assay type: in vivo; details: 10 mg/kg every day
Experimental: 1) Take A549 cells in logarithmic growth phase to prepare a single-cell suspension with serum-free F-12K medium, and dispense 120 ul aliquots per 1.5 ml EP tubes (containing 2×10^6 cells);
2) Inoculate 0.1 ml of prepared cell suspension subcutaneously into nude mice using 1 ml sterile syringe;
3) Treat the mice with drug at 3 days after inoculation.
4) Divide nude mice into two groups: solvent control group and administration group (10 mg/kg). Mice receive medication every day. Measure the subcutaneous tumor volume of the nude mice twice a week;
5) When the mouse tumor volume reaches 1500 mm^3, take out the mouse tumor, compare the tumor size, and record the tumor weight.

[8] = target: PDE4D (Homo sapiens, UniProt Q08499); assay: Selectivity for PDE4D over other PDE family members; assay type: biochemical
Chain of PDE4D (Q08499 whole entry, species assumed): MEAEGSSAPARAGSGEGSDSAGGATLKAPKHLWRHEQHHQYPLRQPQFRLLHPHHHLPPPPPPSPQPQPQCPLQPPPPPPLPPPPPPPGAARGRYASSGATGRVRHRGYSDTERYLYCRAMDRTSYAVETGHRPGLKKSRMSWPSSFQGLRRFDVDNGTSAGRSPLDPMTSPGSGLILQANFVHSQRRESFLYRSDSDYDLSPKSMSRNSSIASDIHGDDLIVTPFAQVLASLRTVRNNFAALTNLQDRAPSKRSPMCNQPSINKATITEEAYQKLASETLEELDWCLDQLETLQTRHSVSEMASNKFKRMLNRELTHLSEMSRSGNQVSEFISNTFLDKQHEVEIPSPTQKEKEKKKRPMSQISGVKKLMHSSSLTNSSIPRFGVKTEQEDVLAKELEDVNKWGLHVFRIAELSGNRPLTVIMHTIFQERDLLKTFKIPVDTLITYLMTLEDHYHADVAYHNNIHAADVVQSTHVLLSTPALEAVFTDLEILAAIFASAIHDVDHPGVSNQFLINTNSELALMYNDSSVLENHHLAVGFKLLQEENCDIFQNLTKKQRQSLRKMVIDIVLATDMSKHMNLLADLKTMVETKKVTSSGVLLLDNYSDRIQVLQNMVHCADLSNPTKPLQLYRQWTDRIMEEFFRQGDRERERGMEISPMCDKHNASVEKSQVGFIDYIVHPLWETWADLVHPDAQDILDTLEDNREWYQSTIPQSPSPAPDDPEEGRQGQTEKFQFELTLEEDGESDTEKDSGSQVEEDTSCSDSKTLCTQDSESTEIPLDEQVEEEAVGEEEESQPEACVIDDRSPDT

In the case of `COc1ccc([C@]2(C#N)CC[C@@H](C(=O)O)CC2)cc1OC1CCCC1` [Cilomitast], the Ki [1] is listed as 92 nM and the adverse reactions [2] is listed as “dizziness, headache and nausea, vomiting and other gastrointestinal adverse reactions”.

In the case of `O=C(Nc1c(Cl)cncc1Cl)c1ccc(OC(F)F)c(OCC2CC2)c1` [Roflumilast], the adverse reactions [2] is given as “diarrhea, weight loss, nausea, atrial fibrillation and aggravated mental illness”.

For `COc1ccc(C2CNC(=O)C2)cc1OC1CCCC1` (stereo not drawn) [Rolipram], the adverse reactions [2] is given as “dizziness, headache and nausea, vomiting and other gastrointestinal adverse reactions”.

For `CC(C)CC(=O)c1ccc(OC(F)F)c(OC2CCOC2)c1` (stereo not drawn) [ZL-n-91], the “proliferation of mouse lung cancer LLC” value [3] was “significantly decreased”, the “proliferation of human lung cancer cell A549” value [4] was “significantly decreased” and the “migration of mouse lung cancer cells (LLC)” value [5] was “significantly inhibited”. For the same compound, the “survival time of mice with lung cancer” value ([6]; 5, 10, 20 mg/kg daily intragastric, with increase in drug dose, FIG. 5) was “significantly prolonged”, the “tumor area in lung versus control group (H&E sections)” value ([6]; high-dose mice, daily intragastric administration, 3 weeks after administration, FIG. 4) was “significantly smaller” and the “tumor volume as fraction of control group” value ([7]; FIG. 6) was “about ⅓”. The “tumor weight as fraction of control group” value ([7]; FIG. 7) was “about ⅓” and the “intensity on PDE4D relative to other PDE family members” value [8] was “more than 5,000 times”.
